In US9873702B2, “Heterocyclic compounds as biogenic amine transport modulators” (Southern Research Institute, priority 2014, dated 2018):
Entries after “also recorded” stand apart in the source; their conditions may differ. Like-named read-outs stand apart in the source and are kept apart here.

Tests used:
[1] = target: dopamine transporter (DAT) (Rattus norvegicus, UniProt P23977); test: Dopamine reuptake ([^3H]dopamine uptake) inhibition in rat brain synaptosomes; settings: for efficacy of [^3H]DA (DAT) uptake inhibition, in words: partial versus full inhibition
Sequence of dopamine transporter (DAT) (P23977 whole entry): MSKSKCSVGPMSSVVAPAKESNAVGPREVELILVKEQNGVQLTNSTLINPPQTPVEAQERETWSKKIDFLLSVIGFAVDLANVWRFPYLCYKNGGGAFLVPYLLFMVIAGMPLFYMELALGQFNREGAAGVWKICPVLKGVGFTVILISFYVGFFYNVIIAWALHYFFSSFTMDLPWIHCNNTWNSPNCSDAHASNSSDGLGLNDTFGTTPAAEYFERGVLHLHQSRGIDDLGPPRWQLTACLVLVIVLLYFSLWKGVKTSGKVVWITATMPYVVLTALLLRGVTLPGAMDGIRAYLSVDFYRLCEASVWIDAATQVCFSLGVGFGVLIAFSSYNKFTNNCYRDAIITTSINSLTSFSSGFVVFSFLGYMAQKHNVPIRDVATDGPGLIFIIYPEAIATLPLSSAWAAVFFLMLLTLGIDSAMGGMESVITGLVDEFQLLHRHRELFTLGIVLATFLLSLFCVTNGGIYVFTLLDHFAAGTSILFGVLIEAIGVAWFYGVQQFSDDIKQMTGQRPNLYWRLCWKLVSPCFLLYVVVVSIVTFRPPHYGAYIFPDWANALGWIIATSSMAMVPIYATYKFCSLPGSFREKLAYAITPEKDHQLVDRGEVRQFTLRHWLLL

[2] = One-Site IC50 (nM), [^3H]DA uptake dose-response curve fit to one-component equation
[3] = Two-Site IC50-1 (nM), [^3H]DA uptake dose-response curve fit to two-component equation, component 1
[4] = Two-Site IC50-2 (nM), [^3H]DA uptake dose-response curve fit to two-component equation, component 2
[5] = read-out: Two-Site Emax-1 (% I)
[6] = read-out: Two-Site Emax-2 (% I)
[7] = DA Uptake EC50 (nM ± SD), rat caudate synaptosomes, 5 nM [^3H]dopamine, 15 min, 25° C., three experiments pooled
[8] = read-out: DA Uptake Emax (% I ± SD)

SMILES | IC50 [1, 7] [nM] | Emax [1, 8] [%] | other results
CN(C)c1ccc(-c2nc(NCC(c3ccccc3)N3CCOCC3)c3ccccc3n2)cc1 (centres unmarked) [SRI-30835] |  |  | IC50 [1, 2]: 15 ± 7 nM; IC50 [1, 3]: 6 ± 0.9 nM; IC50 [1, 4]: 4000 ± 1330 nM; efficacy of [^3H]DA (DAT) uptake inhibition, in words [1]: partially inhibit; Emax ([1]; read-out: One-Site Emax (% I)): 75 ± 5%; Emax [1, 5]: 57 ± 2%; Emax [1, 6]: 42 ± 4%
CN(C)c1ccc(-c2nc(NCCc3ccccc3)c3ccccc3n2)cc1 [SRI-31335] |  |  | IC50 [1, 2]: 156 ± 12 nM; IC50 [1, 3]: 99 ± 63 nM; IC50 [1, 4]: 564 ± 1180 nM; efficacy of [^3H]DA (DAT) uptake inhibition, in words [1]: fully inhibits; also recorded: full-efficacy [^3H]DA uptake inhibitors; Emax ([1]; read-out: One-Site Emax (% I)): 100 ± 1.5%; Emax [1, 5]: 76 ± 54%; Emax [1, 6]: 27 ± 53%
c1ccc(C(CCNc2nc(-c3cccnc3)nc3ccccc23)c2ccccc2)cc1 [compound 1, N-(3,3-Diphenylpropyl)-2-(pyridin-3-yl)quinazolin-4-amine] | 443 ± 88 | 82 ± 3 | 
c1ccc(C(CNc2nc(-c3cccnc3)nc3ccccc23)c2ccccc2)cc1 [compound 2, N-(2,2-Diphenylethyl)-2-(pyridin-3-yl)quinazolin-4-amine] | 480 | 100 | 
c1ccc(C(CCNc2nc(-c3ccsc3)nc3ccccc23)c2ccccc2)cc1 [compound 5, N-(3,3-Diphenylpropyl)-2-(thiophen-3-yl)quinazolin-4-amine] | 416 ± 22 | 83 ± 1 | 
c1ccc(C(Nc2nc(-c3cc4ccccc4s3)nc3ccccc23)c2ccccc2)cc1 [compound 8, N-Benzhydryl-2-(benzo[b]thiophen-2-yl)quinazolin-4-amine] |  |  | melting point: 180 to 182 °C
c1ccc(C(CCNc2nc(-c3cc4ccccc4s3)nc3ccccc23)c2ccccc2)cc1 [compound 19, N-(3,3-Diphenylpropyl)-2-(Benzo [B]Thiophen-2-yl)Quinazolin-4-Amine] |  |  | melting point: 201 to 203 °C
c1ccc(C(CNc2nc(-c3cccc4cc[nH]c34)nc3ccccc23)c2ccccc2)cc1 [compound 33, N-(2,2-Diphenylethyl)-2-(1H-Indol-7-yl)Quinazolin-4-Amine] |  |  | melting point: 67 °C
O=S(=O)(c1ccccc1)n1ccc2cc(-c3nc(NCC(c4ccccc4)c4ccccc4)c4ccccc4n3)ccc21 [compound 36, N-(2,2-Diphenylethyl)-2-(1-(Phenylsulfonyl)-1H-Indol-5-yl)Quinazolin-4-Amine] |  |  | melting point: 203 °C
Clc1cccc(C(CNc2nc(-c3cccnc3)nc3ccccc23)c2ccccc2)n1 (centres unmarked) [compound 53, N-(2-(6-Chloropyridin-2-yl)-2-Phenylethyl)-2-(Pyridin-3-yl)Quinazolin-4-Amine] |  |  | melting point: 83 °C
CC(C)(C)OC(=O)n1cc(-c2nc(NCC(c3ccccc3)c3ccccc3)c3ccccc3n2)c2ccccc21 [compound 72, Tert-Butyl 3-(4-((2,2-Diphenylethyl)Amino)Quinazolin-2-yl)-1H-Indole-1-Carboxylate] |  |  | melting point: 90 °C
c1ccc(C(CNc2nc(-c3c[nH]c4ccccc34)nc3ccccc23)c2ccccc2)cc1 [compound 82, N-(2,2-Diphenylethyl)-2-(1H-Indol-3-yl)Quinazolin-4-Amine] | 239 ± 84 | 93 ± 7 | 
c1ccc(C(CNc2nc(-c3ccc4c(c3)CCN4)nc3ccccc23)c2ccccc2)cc1 [compound 84, N-(2,2-Diphenylethyl)-2-(Indolin-5-yl)Quinazolin-4-Amine] |  | 75 ± 3 | IC50 [1, 2]: 18 ± 4 nM; IC50 [1, 3]: 1.8e+06 nM; IC50 [1, 4]: 1.8e+06 nM; efficacy of [^3H]DA (DAT) uptake inhibition, in words [1]: partially inhibit; also recorded: partial inhibitors; Emax ([1]; read-out: One-Site Emax (% I)): 75 ± 3%; Emax [1, 5]: 37%; Emax [1, 6]: 37%
Nc1ncc(-c2nc(NCC(c3ccccc3)c3ccccn3)c3ccccc3n2)cn1 (centres unmarked) [compound 95, 2-(2-Aminopyrimidin-5-yl)-N-(2-Phenyl-2-(Pyridin-2-yl)Ethyl)Quinazolin-4-Amine] | 385 ± 89 | 72 ± 4 | 
c1ccc(C(CNc2nc(-c3ccc4nccn4c3)nc3ccccc23)c2ncccn2)cc1 (centres unmarked) [compound 103, 2-(Imidazo[1,2-A]Pyridin-6-yl)-N-(2-Phenyl-2-(Pyrimidin-2-yl)Ethyl)Quinazolin-4-Amine] | 553 ± 82 | 73 ± 2 | 
c1ccc(C(CNc2nc(-c3ccc4nnnn4c3)nc3ccccc23)c2ccccc2)cc1 [compound 108, N-(2,2-Diphenylethyl)-2-(Tetrazolo[1,5-A]Pyridin-6-yl)Quinazolin-4-Amine] | 229 ± 54 | 47 ± 2 | 
c1ccc2c(NCC(c3ccncc3)c3ccncc3)nc(-c3cnc4nccn4c3)nc2c1 [compound 176, N-(2,2-Di(Pyridin-4-yl)Ethyl)-2-(Imidazo[1,2-A]Pyrimidin-6-yl)Quinazolin-4-Amine] | 299 ± 45 | 70 ± 2 | 

Continued, in another order:

IC50 [1, 7] [nM] | Emax [1, 8] [%] | SMILES | other results
150 | 100 | c1ccc(C(Nc2nc(N3CCCCC3)nc3ccccc23)c2ccccc2)cc1 [compound 3, N-Benzhydryl-2-(piperidin-1-yl)quinazolin-4-amine] | 
60 | 100 | c1ccc(C(CNc2nc(N3CCCCC3)nc3ccccc23)c2ccccc2)cc1 [compound 4, N-(2,2-Diphenylethyl)-2-(piperidin-1-yl)quinazolin-4-amine] | 
132 ± 43 | 69 ± 4 | c1ccc(C(CNc2nc(-c3ccc4c(c3)NCCC4)nc3ccccc23)c2ccccc2)cc1 [compound 83, N-(2,2-Diphenylethyl)-2-(1,2,3,4-Tetrahydroquinolin-7-yl)Quinazolin-4-Amine] | 
11 ± 2 | 77 ± 2 | c1ccc(C(CNc2nc(-c3ccc4nccn4c3)nc3ccccc23)c2ccncc2)cc1 (centres unmarked) [compound 106, 2-(Imidazo[1,2-A]Pyridin-6-yl)-N-(2-Phenyl-2-(Pyridin-4-yl)Ethyl)Quinazolin-4-Amine] | 
83 ± 27 | 58 ± 3 | c1ccc(C(CNc2nc(-c3ccc4nccn4c3)nc3ccccc23)n2ccnc2)cc1 (centres unmarked) [compound 115, N-(2-(1H-Imidazol-1-yl)-2-Phenylethyl)-2-(Imidazo[1,2-A]Pyridin-6-yl)Quinazolin-4-Amine] | 
165 ± 15 | 69 ± 1 | COCc1c[nH]c2ccc(-c3nc(NCC(c4ccccc4)c4ccccc4)c4ccccc4n3)cc12 [compound 116, N-(2,2-Diphenylethyl)-2-(3-(Methoxymethyl)-1H-Indol-5-yl)Quinazolin-4-Amine] | 
89 ± 27 | 81 ± 4 | c1ccc(C(CNc2nc(-c3cnc4nccn4c3)nc3ccccc23)N2CCCCC2)cc1 (centres unmarked) [compound 120, 2-(Imidazo[1,2-A]Pyrimidin-6-yl)-N-(2-Phenyl-2-(Piperidin-1-yl)Ethyl)Quinazolin-4-Amine] | 
55 ± 10 | 69 ± 2 | c1ccc(C(CNc2nc(-c3cnc4nccn4c3)nc3ccccc23)N2CCOCC2)cc1 (centres unmarked) [compound 128, 2-(Imidazo[1,2-A]Pyrimidin-6-yl)-N-(2-Morpholino-2-Phenylethyl)Quinazolin-4-Amine] | 
49 ± 9 | 71 ± 2 | CN1CCN(C(CNc2nc(-c3cnc4nccn4c3)nc3ccccc23)c2ccccc2)CC1 (centres unmarked) [compound 129, 2-(Imidazo[1,2-A]Pyrimidin-6-yl)-N-(2-(4Methylpiperazin-1-yl)-2-Phenylethyl)Quinazolin-4-Amine] | 
31 ± 7 | 72 ± 3 | c1ccc(C(CNc2nc(-c3cnc4nccn4c3)nc3ccccc23)c2cccnc2)cc1 (centres unmarked) [compound 134, 2-(Imidazo[1,2-A]Pyrimidin-6-yl)-N-(2-Phenyl-2-(Pyridin-3-yl)Ethyl)Quinazolin-4-Amine] | 
92 ± 21 | 92 ± 4 | c1ccc(C(CNc2nc(-c3cccn4ccnc34)nc3ccccc23)c2ccccc2)cc1 [compound 147, N-(2,2-Diphenylethyl)-2-(Imidazo[1,2-A]pyridin-8-yl)Quinazolin-4-Amine] | 
1.6 ± 0.3 | 74 ± 2 | Cc1cc2nccn2cc1-c1nc(NCC(c2ccccc2)C2CCCC2)c2ccccc2n1 (centres unmarked) [compound 194, N-(2-Cyclopentyl-2-Phenylethyl)-2-(7-Methylimidazo[1,2-A]pyridin-6-yl)Quinazolin-4-Amine] | 
34 ± 6 | 74 ± 2 | Cc1c(-c2nc(NCC(c3ccccc3)c3ccccc3)c3ccccc3n2)ccc2nccn12 [compound 195, N N-(2,2-Diphenylethyl)-2-(5-Methylimidazo[1,2-A]Pyridin-6-yl)Quinazolin-4-Amine] | 
14 ± 5 | 77 ± 4 | Cc1cc2nccn2cc1-c1nc(NCC(c2ccccc2)N(C)C)c2ccccc2n1 (centres unmarked) [compound 196, N1,N1-Dimethyl-N2-(2-(7-Methylimidazo[1,2-A]Pyridin-6-yl)Quinazolin-4-yl)-1-Phenylethane-1,2-Diamine] | 
208 ± 34 | 92 ± 3 | Cc1ccc(-c2nc(NCC(c3ccccc3)c3ccccc3)c3ccccc3n2)c2nccn12 [compound 197, N-(2,2-Diphenylethyl)-2-(5-Methylimidazo[1,2-A]pyridin-8-yl)Quinazolin-4-Amine] | 
9.1 ± 2.1 | 73 ± 3 | c1ccc(C(CNc2nc(-c3cnc4ccnn4c3)nc3ccccc23)c2ccccc2)cc1 [compound 199, N-(2,2-Diphenylethyl)-2-(Pyrazolo[1,5-a]Pyrimidin-6-yl)Quinazolin-4-Amine] | 
2.3 ± 0.3 | 74 ± 2 | FC(F)(F)c1cc2nccn2cc1-c1nc(NCC(c2ccccc2)c2ccccc2)c2ccccc2n1 [compound 200, N-(2,2-Diphenylethyl)-2-(7-(Trifluoromethyl)Imidazo[1,2-a]Pyridin-6-yl)Quinazolin-4-Amine] | 
1.7 ± 0.2 | 72 ± 1 | Cc1cc2nccn2cc1-c1nc(NCC(c2ccc(F)cc2)c2ccc(F)cc2)c2ccccc2n1 [compound 203, N-(2,2-Bis(4-Fluorophenyl)Ethyl)-2-(7-Methylimidazo[1,2-a]Pyridin-6-yl)Quinazolin-4-Amine] | 
